# {C7MB} = methylene blue on (CH2)7 linker; {C11SH} = thiol on (CH2)11 linker; {MB} = methylene blue redox label; {C6SH} = thiol on (CH2)6 linker
# Assays:
# [1] = Cocaine/procaine binding aptamer sensor step response to target in buffer and whole blood (SWV)
# [2] = system: DOX probe; experiment: DOX probe specificity characterization against off-target chemotherapy agents; format: binding; conditions: 1,000× greater concentrations (1 mM vs DOX 1 μM), 1×SSC
# Description: Probes were characterized in terms of affinity, specificity and kinetic response. […] At each concentration, the signal was permitted to equilibrate and then ten subsequent readings were obtained from two separate electrodes and averaged as the reported values. […] Voltammograms were taken in immediate succession to provide maximal temporal resolution. Dose-response curves were obtained by fitting data to a one-site binding model, and kinetic-response curves were obtained by fitting data to a one-phase association and dissociation model.
# [3] = stated, not measured here; cited from earlier work
# [4] = in vivo; conditions: male, Sprague-Dawley, rat, iv
# Method: A calibration curve was obtained (FIG. 5), then doses of 32, 64 and 96 mg·kg^−1 were serially injected, followed by a baseline control.
# [5] = DOX probe characterization: dose-response (affinity) and kinetic response by square-wave voltammetry; format: binding
# Description: Aptamer probes were synthesized with the following sequences: DOX-probe: 5′-HS—(CH2)6-ACCATCTGTGTAAGGGGTAAGGGGTGGT-MB-3′ (SEQ ID NO: 1), Kanamycin-probe: 5′-HS—(CH2)6-GGGACTTGGTTTAGGTAATGAGTCCC-MB-3′ (SEQ ID NO: 2). DOX-probe is a truncated form of an anthracycline aptamer. A region of the aptamer suspected of supporting a hairpin structure was selected, with an apparent active binding site in the base. The stem was engineered to enable effective signal transduction through stabilization of the folded state. The kanamycin probe was adapted from that described in Rowe et al. Analytical chemistry 82, 7090-5 (2010). Each probe was thiolated at the 5′-end to facilitate self-assembly on the gold working electrodes, and conjugated with an MB redox label at the 3′-end to enable target binding-induced charge transfer modulation. Prior to probe immobilization, the gold electrodes were first cleaned via cyclic voltammetry, with twelve potential sweeps ranging from −0.8 to 0.9 V (with respect to the platinum reference electrode) applied at 0.1 V·s^−1 with a sample interval of 0.001 V and 10 μA sensitivity in 50 mM H2SO4. Subsequently, the chamber was flushed with DI water, followed by the addition of probe solution. The probe solution was prepared by adding 2 μL of 10 mM tris(2-carboxyethyl)phosphine (TCEP) to 1 μL of 200 μM probe stock and incubating at room temperature for 60 minutes to enable cleavage of disulphide bonds. The solution was then diluted to 2 μM in 1× saline-sodium citrate (SSC) buffer for effective self-assembly. The chip was incubated with probe solution for 1 hour at room temperature, permitting the thiolated aptamer to form a monolayer on the gold electrode surface. The chamber was then flushed with 5 mL DI water for 5 minutes, and the remaining electrode area was incubated for two hours in passivation solution, consisting of 1 μL of stock 6-mercaptohexanol diluted to 3 mM in DI water. The chamber was flushed again with DI water and filled with 1×SSC, after which the device was stored at 4° C. until use.
# Electrochemical measurements were conducted with an electrochemical analyzer (730B, CH Instruments, Austin, TX). The chip was connected via 8-pin card-edge connector and subjected to SWV scans. Working electrodes were scanned in continuous succession with an average scan period of 8 seconds. To accommodate potential shifts due to the non-ideal on-chip pseudo-reference electrodes, a 400 mV potential range was scanned to reliably capture the MB redox peak. For optimal frequency determination for the KDM, frequency-sweep scans were performed from 5 Hz to 800 Hz, with amplitude of 25 mV. A custom peak-fitting script was created to fit the SWV measurements with a Gaussian curve on a hyperbolic baseline. Peak currents were then normalized to a baseline peak current to generate signal gain. Unless otherwise noted, all reported gains were obtained via KDM with the difference divided average of gains from 7.5 Hz and 75 Hz signals.
# Probes were characterized in terms of affinity, specificity and kinetic response. For affinity measurements, a dose-response curve was obtained by subjecting the probe to DOX concentrations (for the DOX-probe) ranging from 50 nM to 10 μM in 1×SSC at a flow-rate of 1 mL·h^−1. At each concentration, the signal was permitted to equilibrate and then ten subsequent readings were obtained from two separate electrodes and averaged as the reported values. The same procedure was applied for specificity characterization, where DOX was injected at 1 μM while off-target reagents mitomycin-C (MTC), ifosfamide (Ifex), Mesna, dacarbazine (DTIC) or cisplatin (CDDP) were injected at 1 mM. […] Voltammograms were taken in immediate succession to provide maximal temporal resolution. Dose-response curves were obtained by fitting data to a one-site binding model, and kinetic-response curves were obtained by fitting data to a one-phase association and dissociation model. […]
# [6] = biphasic, cited from earlier work
# [7] = Continuous real-time MEDIC measurement of in vivo DOX concentration in live rats; conditions: male, Sprague-Dawley, rat, 1 mg·m^−2, alpha-phase half-life t1/2^α
# [8] = humans; cited from earlier work
# [9] = male, Sprague-Dawley, rat, in vivo
# [10] = after a 5 minute pulse of 600 nM DOX
compound,measurement,setting,value
"5′-HS—(CH2)11-AGACAAGGAAAATCCTTCAATGAAGTGGGTCG-(CH2)7-MB-3′ (AGACAAGGAAAATCCTTCAATGAAGTGGGTCG; DNA, 5' {C11SH}, 3' {C7MB}, backbone and methylation of C not given here) [cocaine/procaine binding aptamer, DNA aptamer thiolated on the 5′-end, methylene blue redox label at the 3′-end]",Kd,[1],~190 µM
same,koff,[1]; 128 μM target in 1×SSC buffer,~0.031 s⁻¹
same,kon,[1]; 128 μM target in 1×SSC buffer,~160 s⁻¹ M⁻¹
same,signal gain,"[1]; 128 μM target in 1×SSC buffer, before blood exposure",60%
same,signal gain,[1]; 128 μM target in buffer after whole blood exposure,~20%
same,signal gain,"[1]; 128 μM target in whole blood, after ~1 h whole blood exposure at room temperature",~10%
same,affinity for its target at 37° C.,[1]; 37° C.,loses affinity for its target
same,performance at room temperature,[1]; room temperature,performs well
O=P1(NCCCl)OCCCN1CCCl (centres unmarked) [ifosfamide],sensor response to off-target drug,[2],did not respond
N.N.[Cl][Pt][Cl] [cisplatin],sensor response to off-target drug,[2],did not respond
NC[C@H]1O[C@H](O[C@H]2[C@H](O)[C@@H](O[C@H]3O[C@H](CO)[C@@H](O)[C@H](N)[C@H]3O)[C@H](N)C[C@@H]2N)[C@H](O)[C@@H](O)[C@@H]1O [kanamycin],beta phase t1/2^β,[3],2 to 3 h
same,half-life,[4]; 32 mg/kg,7.2 min
same,half-life,[4]; 64 mg/kg,10 min
same,half-life,[4]; 96 mg/kg,9 min
CO[C@@]12[C@H](COC(N)=O)C3=C(C(=O)C(C)=C(N)C3=O)N1C[C@@H]1N[C@@H]12 [mitomycin-C],sensor response to off-target drug,[2],did not respond
"5′-HS—(CH2)6-ACCATCTGTGTAAGGGGTAAGGGGTGGT-MB-3′ (ACCATCTGTGTAAGGGGTAAGGGGTGGT; DNA, 5' {C6SH}, 3' {MB}, backbone and methylation of C not given here) [DOX probe, truncated form of an anthracycline DNA aptamer, thiolated at the 5′-end, MB redox label at the 3′-end]",time to reach 90% saturation,[5]; DOX pulse,≤ 45 s
same,time to return to 10% of baseline,[5]; after DOX pulse,≤ 100 s
same,koff,[5]; [10],1.35 ± 0.05 min⁻¹
same,kon,[5]; [10],3.0 ± 0.35 µM⁻¹ min⁻¹
same,dynamic range,[5]; in buffer,0.1 to 10 µM
same,limit of detection (LOD),[5]; in buffer,10 nM
same,Kd,"[5]; signal gain fitted to a Langmuir isotherm, DOX 50 nM to 10 μM in 1×SSC, read-out: apparent Kd",824 nM
C[C@@H]1[C@H](O)[C@@H](C)/C=C/C=C/C=C/C=C/C=C/C=C/C=C/[C@H](O[C@@H]2O[C@H](C)[C@@H](O)[C@H](N)[C@@H]2O)C[C@@H]2O[C@](O)(C[C@@H](O)C[C@@H](O)[C@H](O)CC[C@@H](O)C[C@@H](O)CC(=O)O[C@H]1C)C[C@H](O)[C@H]2C(=O)O [Amphotericin B],"half-life, initial phase",[6]; initial phase,24 h
same,"half-life, second phase",[6]; second phase,15 days
O=S(=O)(O)CCS [mesna],sensor response to off-target drug,[2],did not respond
"COc1cccc2c1C(=O)c1c(O)c3c(c(O)c1C2=O)C[C@@](O)(C(=O)CO)C[C@@H]3O[C@H]1C[C@H](N)[C@H](O)[C@H](C)O1 [DOX, doxorubicin]",half-life,[7]; first of two injections of 1 mg·m^−2,10.7 ± 0.5 min
same,half-life,[7]; second of two injections of 1 mg·m^−2,10.8 ± 1 min
same,alpha-phase plasma clearance time,[8],6 to 26 min
same,Pearson correlation coefficient of t1/2^α as a function of body surface area,[9],−0.73

# From patent US12016682B2, “In-vivo monitoring of molecular targets” (The Regents of the University Of California, priority 2013, dated 2024)
